In US8945361B2, “Electrophoresis standards, methods and kits” (ProteinSimple, priority 2005, dated 2015):
Where a SMILES comes first, the peptide text is derived from it. The star is where a group is joined. 5TAMRA = CN(C)c1ccc2c(c1)Oc1cc(N(C)C)ccc1C21OC(=O)c2cc(C(=O)*)ccc21; X1 = [N-]=[N+]=Nc1c(F)c(F)c(C(=O)*)c(F)c1F

Key:
[1] = expected pKa's, net charge and pI of the Example 5 peptide; assay type: physicochemical
Source text: The blocks of lysine (K) and glutamic acid (E) residues contain basic and acidic ionizable groups at a variety of pKa values in keeping with the proximity effects described above. […] The approximate expected net charge on the peptide at various pH values is then as follows: pH 11, −3; pH 10, −2.5; pH 9, −1.7; pH 8, −0.8; pH 7, +0.3; pH 6, +1.2; pH 5, +2.3; pH 4, +3.2; pH 3, +4, pH 2, +4.5; pH 1, +5. […] The peptide is therefore expected to be a useful pI standard that forms a tight band under electrophoretic conditions in a pH gradient. Additional standards of desired pIs can be generated by systematically varying the number of sequential K and E residues in a set of peptides based on the above sequence.

[2] = pI mobility standard
Source text: The pI of standards can be determined directly in IEF PAGE gels using a pH meter with a microprobe.

Compound	approximate expected net charge ([1]; pH 1)	approximate expected net charge ([1]; pH 2)	approximate expected net charge ([1]; pH 3)	approximate expected net charge ([1]; pH 4)	approximate expected net charge ([1]; pH 5)	approximate expected net charge ([1]; pH 6)	approximate expected net charge ([1]; pH 7)	approximate expected net charge ([1]; pH 8)	approximate expected net charge ([1]; pH 9)	approximate expected net charge ([1]; pH 10)	approximate expected net charge ([1]; pH 11)	pI [2]
Ac—K(ATFB) KKKKKAibAibEEEGG K(5-TAMRA)G-NH2	~+5	~+4.5	~+4	~+3.2	~+2.3	~+1.2	~+0.3	~−0.8	~−1.7	~−2.5	~−3	
C[C@H](NC(=O)CNC(=O)[C@@H](N)CCCCNC(=O)c1c(F)c(F)c(N=[N+]=[N-])c(F)c1F)C(=O)N[C@@H](CCC(=O)O)C(=O)N[C@@H](Cc1c[nH]cn1)C(=O)N[C@@H](Cc1c[nH]cn1)C(=O)N[C@@H](CCCCNC(=O)c1ccc2c(c1)C(=O)OC21c2ccc(N(C)C)cc2Oc2cc(N(C)C)ccc21)C(=O)NCC(=O)O [H2N—K(ATFB)GAEHHK(5-TAMRA)G-OH] (H-K(X1)GAEHHK(5TAMRA)G-OH)												approximately 5.45
